Experimental data published in US20230278972A1, “SUBSTITUTED HALOALKYL SULFONANILIDE HERBICIDES” (FMC Corporation, priority 2020, published 2023).

How the values were obtained:
Format in all cases: in vivo
[1] = system: blackgrass (Alopecurus myosuroides); assay: Test A1 preemergence, blackgrass
Method in brief: (§1)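 Seeds were first planted into a blend of loam soil and sand and given a preemergence directed soil spray. In parallel, pots of the same soil were sown for postemergence application once plants reached 2 to 10 cm and the one- to two-leaf stage. Both used surfactant-containing non-phytotoxic solvent formulations.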

corn (Zea mays) = assay: Test A1 preemergence, corn
Method in brief: (§2)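 Plants grown in pots of loam/sand mix; preemergence = soil-directed spray on seeded pots, postemergence = spray at 1–2 leaves, height 2–10 cm; test chemicals formulated in non-phytotoxic solvent with surfactant.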

[2] = system: goosegrass (Eleusine indica); assay: Test A1 preemergence, goosegrass
Method in brief: as §1

[3] = system: Pigweed, Palmer (palmer amaranth, palmer pigweed, Amaranthus palmeri); assay: Test A1 preemergence, Pigweed, Palmer
Method in brief: as §1

[4] = system: ragweed (common ragweed, Ambrosia artemisiifolia); assay: Test A1 preemergence, ragweed
Method in brief: as §1

[5] = system: Pigweed, Palmer (palmer amaranth, palmer pigweed, Amaranthus palmeri); assay: Test A1 postemergence, Pigweed, Palmer; conditions: Postemergence
Method in brief: as §2

[6] = system: ragweed (common ragweed, Ambrosia artemisiifolia); assay: Test A1 postemergence, ragweed; conditions: Postemergence
Method in brief: as §2

[7] = system: galium (catchweed bedstraw, Galium aparine); assay: Test A1 postemergence, galium; conditions: Postemergence
Method in brief: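 Herbicidal response was scored on plants treated either preemergence, by directed spray onto soil of a loam–sand blend after sowing, or postemergence on potted plants at the one- to two-leaf stage, 2–10 cm high. Test chemicals were carried in a non-phytotoxic solvent mix with surfactant.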

[8] = system: ducksalad (Heteranthera limosa); assay: Test B1 flooded paddy test, ducksalad; conditions: 250 g ai/ha, Flood, applied to paddy water, 2-leaf stage, visually evaluated after 10 to 14 days
Description: A dash (-) response means no test result.

[9] = 31 g ai/ha, 0 to 100 scale (0 no effect, 100 complete control)
[10] = 125 g ai/ha, 0 to 100 scale, 0 no effect, 100 complete control
[11] = 31 g ai/ha, 0 to 100 scale (0 no effect, 100 complete control), 10 days

| Structure (SMILES) | Plant response rating, Blackgrass [1, 9] | Plant response rating, Blackgrass [1, 10] | Plant response rating, Corn (corn (Zea mays); [9]) | Plant response rating, Corn (corn (Zea mays); [10]) | Plant response rating, Goosegrass [2, 9] | Plant response rating, Goosegrass [2, 10] | Plant response rating, Pigweed, Palmer [3, 9] | Plant response rating, Pigweed, Palmer [3, 10] | Plant response rating, Ragweed [4, 9] | Plant response rating, Ragweed [4, 10] | Plant response rating, Pigweed, Palmer [5, 11] | Plant response rating, Pigweed, Palmer ([5]; 125 g ai/ha, 0 to 100 scale) | Plant response rating, Ragweed [6, 11] | Plant response rating, Ragweed ([6]; 125 g ai/ha, 0 to 100 scale) | Plant response rating, Galium [7, 11] | Plant response rating, Galium ([7]; 125 g ai/ha, 0 to 100 scale) | Plant response rating, Ducksalad (0 to 100 scale, 0 is no effect, 100 is complete control) [8] |
| --- | --- | --- | --- | --- | --- | --- | --- | --- | --- | --- | --- | --- | --- | --- | --- | --- | --- |
| CCC1ON=C(c2cc(N(C(=O)OCC(C)C)S(=O)(=O)C(F)(F)F)c(C)cc2C)C1CC (centres unmarked) [Compound 345] | 40 | 70 | 10 | 10 | 30 | 90 | 80 | 100 | 0 | 0 | 40 | 60 | 30 | 70 | 80 | 100 | 30 |
| CCC1ON=C(c2cc(N(C(=O)OCC(C)C)S(=O)(=O)C(F)(F)F)c(C)cc2C)C1CC (centres unmarked) [Compound 348] | 30 | 70 | 0 | 10 | 30 | 90 | 10 | 90 | 0 | 10 | 0 | 70 | 10 | 60 | 60 | 80 | 40 |
| Cc1cc(C)c(C2=NOC3OCCC23)cc1NS(=O)(=O)C(F)(F)F (centres unmarked) [Compound 349] | 50 | 80 | 20 | 100 | 90 | 100 | 100 | 100 | 30 | 90 | 20 | 70 | 70 | 90 | 100 | 100 | 80 |
| Cc1cc(C)c(N(COC(=O)C(C)(C)C)S(=O)(=O)C(F)(F)F)cc1C(=O)N1CCC(F)(F)CC1 [Compound 350] | 0 | 0 | 0 | 0 | 30 | 90 | 20 | 60 | 20 | 80 | 30 | 40 | 80 | 90 | 70 | 90 | 80 |
| CCOC(=O)N(c1cc(C(=O)N2CCC(F)(F)CC2)c(C)cc1C)S(=O)(=O)C(F)(F)F [Compound 351] | 10 | 50 | 0 | 0 | 40 | 100 | 80 | 90 | 50 | 90 | 10 | 20 | 70 | 90 | 80 | 100 | 70 |
| Cc1cc(C)c(N(COC(=O)C(C)(C)C)S(=O)(=O)C(F)(F)F)cc1C1=NOC2OCCC12 (centres unmarked) [Compound 352] | 20 | 40 | 10 | 50 | 90 | 100 | 70 | 100 | 60 | 90 | 20 | 60 | 70 | 90 | 100 | 100 | 65 |
| Cc1cc(C)c(N(COC(=O)C(C)(C)C)S(=O)(=O)C(F)(F)F)cc1C(=O)N1CCC(C)CC1 [Compound 353] | 0 | 0 | 10 | 30 | 20 | 70 | 30 | 40 | 20 | 20 | 0 | 30 | 20 | 60 | 50 | 70 | 65 |
| CCOC(=O)N(c1cc(C(=O)N2CCC(C)CC2)c(C)cc1C)S(=O)(=O)C(F)(F)F [Compound 354] | 0 | 0 | 0 | 0 | 70 | 100 | 10 | 50 | 20 | 50 | 0 | 10 | 40 | 50 | 40 | 80 | 60 |
| Cc1cc(C2CC2)c(C2=NOC3CCCC23)cc1N(COC(=O)C(C)(C)C)S(=O)(=O)C(F)(F)F (centres unmarked) [Compound 355] | 0 | 0 | 0 | 0 | 20 | 90 | 0 | 70 | 0 | 40 | 0 | 30 | 60 | 60 | 40 | 60 | 45 |
| Cc1c(NS(=O)(=O)C(F)(F)F)cc(C(=O)N2CCC(Cl)CC2)c(C)c1C [Compound 356] | 0 | 10 | 0 | 90 | 90 | 90 | 50 | 100 | 0 | 0 | 0 | 10 | 70 | 80 | 70 | 100 | 45 |
